Patent US12083101B2, “Biaryl derivatives as YAP/TAZ-TEAD protein-protein interaction inhibitors” (Novartis AG, priority 2020, dated 2024)
Counter-ions that a name gives are not always drawn.

Molecular target: Avi-humanTEAD4 217-434 / Cy5 labeled humanYAP 60-100 (Homo sapiens (Human), UniProt Q15561)
Assay: TR-FRET YAP-TEAD4 in-vitro biochemical assay
Assay type: binding
Conditions: 1 nM Avi-humanTEAD4 217-434, 20 nM Cy5-humanYAP 60-100, 1 h room temperature
Description: N-terminus Cy5 labeled humanYAP^60-100 (20 nM) was then added to this preparation. Compounds were dissolved at 10 mM in 100% DMSO and serial dilutions were made in 100% DMSO. The diluted compound solutions were incubated in white 384-well plates (Greiner Bio-One) for 1 h at room temperature with the above described mix. The final DMSO concentration present in the assay was 1%. […] The IC50 values were estimated by fitting the data by nonlinear fit regression (GraphPad Prism).

Chain of Avi-humanTEAD4 217-434 / Cy5 labeled humanYAP 60-100 (Q15561 217-434): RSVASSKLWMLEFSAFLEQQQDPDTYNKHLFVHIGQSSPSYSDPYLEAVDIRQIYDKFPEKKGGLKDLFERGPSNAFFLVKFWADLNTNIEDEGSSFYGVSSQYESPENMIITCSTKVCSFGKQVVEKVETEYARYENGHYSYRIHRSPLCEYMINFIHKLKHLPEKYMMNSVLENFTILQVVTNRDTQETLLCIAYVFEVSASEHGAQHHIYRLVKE

Row | Structure (SMILES) | IC50 [nM]
1 | COCCNC[C@@]1(c2ccccc2)Cc2c(cc(F)c(Cl)c2-c2c(C(N)=O)ccc(OC(F)F)c2F)O1 (atropisomer, axis not shown) [Example 77, 2-((2S,4S)-5-chloro-6-fluoro-2-(((2-methoxyethyl)amino)methyl)-2-phenyl-2,3-dihydrobenzofuran-4-yl)-4-(difluoromethoxy)-3-fluorobenzamide] | 71
2 | NC[C@@]1(c2ccccc2)Cc2c(cc(F)c(Cl)c2-c2c(F)cccc2C(N)=O)O1 [Example 32b, 2-((2S,4R)-2-(aminomethyl)-5-chloro-6-fluoro-2-phenyl-2,3-dihydrobenzofuran-4-yl)-3-fluorobenzamide] | > 100000
3 | NC[C@@]1(c2ccccc2)Cc2c(ccc(Cl)c2-c2c(Cl)cccc2C(N)=O)O1 (atropisomer, axis not shown) [Example 7, 2-((2S,4S)-2-(aminomethyl)-5-chloro-2-phenyl-2,3-dihydrobenzofuran-4-yl)-3-chlorobenzamide trifluoroacetate salt] | 65
4 | NC[C@@]1(c2ccccc2)Cc2c(ncc(Cl)c2-c2c(F)cccc2C(N)=O)O1 (atropisomer, axis not shown) [Example 131, 2-((2S,4S)-2-(Aminomethyl)-5-chloro-2-phenyl-2,3-dihydrofuro[2,3-b]pyridin-4-yl)-3-fluorobenzamide] | 1290
5 | NCCOc1cccc(F)c1-c1c(Cl)ccc2c1C[C@@](CN)(c1ccccc1)O2 [Example 3a, 2-(2-((2S,4S)-2-(Aminomethyl)-5-chloro-2-phenyl-2,3-dihydrobenzofuran-4-yl)-3-fluorophenoxy)ethanamine] | 16
6 | NC(=O)c1ccc(OC(F)F)c(F)c1-c1c(Cl)c(F)cc2c1C[C@@](CN[C@H]1C[C@H](COC(F)F)C1)(c1ccccc1)O2 (atropisomer, axis not shown) [Example 80, 2-((2S,4S)-5-chloro-2-(((trans-3-((difluoromethoxy)methyl)cyclobutyl)amino)methyl)-6-fluoro-2-phenyl-2,3-dihydrobenzofuran-4-yl)-4-(difluoromethoxy)-3-fluorobenzamide] | 14
7 | NC[C@]1(c2ccccc2)Cc2c(ccc(Cl)c2-c2c(F)cccc2C(N)=O)O1 (stereo in doubt) [Example 4b, 2-((2S*,4R*)-2-(aminomethyl)-5-chloro-2-phenyl-2,3-dihydrobenzofuran-4-yl)-3-fluorobenzamide] | > 100000
8 | NC[C@]1(c2ccccc2)Oc2ccc(Cl)c(-c3c(C(N)=O)ccc(OC(F)F)c3F)c2[C@@H]1O (atropisomer, axis not shown) [Example 87, 2-((2S,3S,4S)-2-(aminomethyl)-5-chloro-3-hydroxy-2-phenyl-2,3-dihydrobenzofuran-4-yl)-4-(difluoromethoxy)-3-fluorobenzamide] | 30
9 | CNC[C@@]1(c2ccccc2)Cc2c(cc(F)c(Cl)c2-c2c(C(=O)NC)cnc(OCCO)c2F)O1 (atropisomer, axis not shown) [Example 53, 4-((2S,4S)-5-chloro-6-fluoro-2-((methylamino)methyl)-2-phenyl-2,3-dihydrobenzofuran-4-yl)-5-fluoro-6-(2-hydroxyethoxy)-N-methylnicotinamide] | 6
10 | COc1ccc(C(N)=O)c(-c2c(Cl)ccc3c2[C@H](O)[C@@](CN[C@H]2CC[C@H](O)CC2)(c2ccccn2)O3)c1F (relative stereo) [Example 95a, 2-((2R,3S,4S)-5-Chloro-3-hydroxy-2-((((trans)-4-hydroxycyclohexyl)amino)methyl)-2-(pyridin-2-yl)-2,3-dihydrobenzofuran-4-yl)-3-fluoro-4-methoxybenzamide] | 8
11 | Cc1cccc(C(N)=O)c1-c1c(Cl)ccc2c1C[C@@](CN)(c1ccccc1)O2 (atropisomer, axis not shown) [Example 6, 2-((2S,4R)-2-(aminomethyl)-5-chloro-2-phenyl-2,3-dihydrobenzofuran-4-yl)-3-methylbenzamide] | 376

Now those with a lower IC50, led by results:

Row | IC50 [nM] | Structure (SMILES)
12 | 2 | COc1ncc(C(N)=O)c(-c2c(Cl)c(F)cc3c2C[C@@](CN[C@H]2CC[C@](C)(O)CC2)(c2ccccc2)O3)c1F (atropisomer, axis not shown) [Example 66a, 4-((2S,4S)-5-chloro-6-fluoro-2-((((trans)-4-hydroxy-4-methylcyclohexyl)amino)methyl)-2-phenyl-2,3-dihydrobenzofuran-4-yl)-5-fluoro-6-methoxynicotinamide]
13 | 3 | CS(=O)(=O)NC1CCC(NC[C@@]2(c3ccccc3)Cc3c(cc(F)c(Cl)c3-c3c(C(N)=O)ccc(OC(F)F)c3F)O2)CC1 (single isomer, unassigned) [Example 57a]
14 | 5 | COC(=O)[C@H]1CC[C@@H](NC[C@@]2(c3ccccc3)Cc3c(ccc(Cl)c3-c3c(C(N)=O)ccc(F)c3F)O2)CC1 (relative stereo) [Example 137a, Methyl (cis)-4-((((2S,4S)-4-(6-carbamoyl-2,3-difluorophenyl)-5-chloro-2-phenyl-2,3-dihydrobenzofuran-2-yl)methyl)amino)cyclohexane-1-carboxylate]
15 | 2 | C[C@H]1c2c(cc(F)c(Cl)c2-c2c(C(N)=O)ccc(OCCO)c2F)O[C@]1(CN)c1ccccc1 (atropisomer, axis not shown) [Example 107, 2-((2S,3S,4S)-2-(aminomethyl)-5-chloro-6-fluoro-3-methyl-2-phenyl-2,3-dihydrobenzofuran-4-yl)-3-fluoro-4-(2-hydroxyethoxy)benzamide]
16 | 1 | COCCOc1ccc(C(N)=O)c(-c2c(Cl)c(F)cc3c2[C@H](C)[C@@](CN[C@H]2CC[C@@](C)(O)CC2)(c2ccccc2)O3)c1F (atropisomer, axis not shown) [Example 116b, 2-((2S,3S,4S)-5-chloro-6-fluoro-2-((((cis)-4-hydroxy-4-methylcyclohexyl)amino)methyl)-3-methyl-2-phenyl-2,3-dihydrobenzofuran-4-yl)-3-fluoro-4-(2-methoxyethoxy)benzamide]
17 | 5 | CNC[C@@]1(c2ccccc2)Cc2c(cc(F)c(Cl)c2-c2c(C(N)=O)cnc(OCCO)c2F)O1 (atropisomer, axis not shown) [Example 49, 4-((2S,4S)-5-Chloro-6-fluoro-2-((methylamino)methyl)-2-phenyl-2,3-dihydrobenzofuran-4-yl)-5-fluoro-6-(2-hydroxyethoxy)nicotinamide]
18 | 3 | CO[C@H]1c2c(cc(F)c(Cl)c2-c2c(C(N)=O)ccc(OC(F)F)c2F)O[C@]1(CN[C@H]1CC[C@H](O)CC1)c1ccccc1 (relative stereo) [Example 102a, 2-((2S,3S,4S)-5-Chloro-6-fluoro-2-((((trans)-4-hydroxycyclohexyl)amino)methyl)-3-methoxy-2-phenyl-2,3-dihydrobenzofuran-4-yl)-4-(difluoromethoxy)-3-fluorobenzamide]
19 | 2 | C[C@H]1c2c(cc(F)c(Cl)c2-c2c(C(N)=O)ccc(OC(F)F)c2F)O[C@]1(CN[C@H]1CC[C@@H](O)CC1)c1ccccc1 (atropisomer, axis not shown) [Example 115b, 2-((2S,3S,4S)-5-chloro-6-fluoro-2-((((cis)-4-hydroxycyclohexyl)amino)methyl)-3-methyl-2-phenyl-2,3-dihydrobenzofuran-4-yl)-4-(difluoromethoxy)-3-fluorobenzamide]
